In patent US12133936B2, “Surgical system and methods of use” (priority 2021, dated 2024):

Legend:
[1] = in vivo
From the text: (§1) However, in some embodiments, however, higher doses of tranexamic acid are used for topical applications to account for tranexamic acid being widely distributed throughout the extracellular and intracellular compartments when given preoperatively.

fibrinolysis = experiment: prevention / reversal of fibrinolysis; settings: one tenth of the doses used in the non-GLP acute porcine study
From the text: as §1

myofibroblast formation = settings: Ajmal et al. (2003); cited from earlier work

time to reach plasma concentrations [1] [min] | Compound | reversing fibrinolysis (fibrinolysis) | myofibroblast formation (myofibroblast formation)
5 to 15 | NC[C@H]1CC[C@H](C(=O)O)CC1 [tranexamic acid, trans-4-(aminomethyl)cyclohexanecarboxylic acid] | effective in reversing fibrinolysis | 
 | O=S(=O)([O-])CCS.[Na+] [MESNA, sodium 2-mercaptoethane sulfonate] |  | diminish myofibroblast formation
